Converted amounts (≈) assume the structure as drawn. The source made the active and inactive calls. The calls are words filed in the database; no cut-off is given here.
Tests used:
[1] = Plasma protein binding in beagle dog plasma at 0.3 mg/kg,po or 0.1 mg/kg,iv measured after 4 hrs by rapid equilibrium dialysis method; type: ADME, organism-based, Canis lupus familiaris; conditions: read-out: PPB (converted)
[2] = In vivo Inhibition of AKT phosphorylation at Ser473 residue in athymic nude mouse xenografted with rat Rat1-myr-p110alpha cells at 20 mg/kg, po qd measured after 14 hrs; type: functional
[3] = Effect on blood glucose level in athymic nude mouse xenografted with rat Rat1 cells expressing myr-p110alpha assessed as fold increase at 40 mg/kg, po bid measured for 2 to 10 hrs by glucometer analysis; type: toxicity, organism-based; conditions: in vivo, time 2-10 hrs
[4] = Drug concentration in OF1 mouse blood at 1 mg/kg, iv measured at 5 mins post dose by LC-MS/MS analysis; type: ADME, organism-based; conditions: whole blood, read-out: Ct
[5] = Tmax in beagle dog at 0.3 mg/kg,po or 0.1 mg/kg,iv measured upto 24 hrs by LC-MS/MS analysis; type: ADME, organism-based, Canis lupus familiaris; conditions: in vivo
[6] = Inhibition of PI3K PTEN mutant in human HCC1937 cells assessed as reduction in phosphorylation of AKT at Ser473 residue by Western blot analysis; type: cell-based
[7] = Effect on blood glucose level in athymic nude mouse xenografted with rat Rat1 cells expressing myr-p110alpha at 3 to 20 mg/kg, po qd measured upto 14 hrs by glucometer analysis; type: toxicity, organism-based; conditions: in vivo, dose 3-20 mg/kg
Rat1 [8] = assay: Antitumor activity at rat Rat1 cells expressing myr-p110alpha xenografted in athymic nude mouse assessed as T/C ratio at 10 mg/kg, po qd measured after 14 to 22 days; type: functional; conditions: time 14-22 day
Rat1 [9] = assay: Antitumor activity at rat Rat1 cells expressing myr-p110alpha xenografted in athymic nude mouse assessed as T/C ratio at 40 mg/kg, po bid measured after 15 to 24 days; type: functional; conditions: time 15-24 day
[10] = Clast in athymic nude mouse xenografted with rat Rat1 cells expressing myr-p110alpha at 20 mg/kg, po measured after 8 days by LC-MS/MS analysis; type: ADME, organism-based; conditions: in vivo, time 8 day, read-out: Clast
[11] = Inhibition of PI3K PTEN mutant in human MDA-MB-436 cells assessed as reduction in phosphorylation of AKT at Ser473 residue by Western blot analysis; type: cell-based
[12] = biological target: Phosphatidylinositol 4,5-bisphosphate 3-kinase catalytic subunit gamma isoform (Homo sapiens, UniProt P48736); assay: Inhibition of PI3Kgamma (unknown origin) using phosphatidylinositol 4,5-bisphosphate as substrate measured for 15 to 60 mins by TR-FRET based Adapta universal kinase assay
[13] = Cmax in athymic nude mouse xenografted with rat Rat1 cells expressing myr-p110alpha at 3 mg/kg, po measured after 8 days by LC-MS/MS analysis; type: ADME, organism-based; parameters: time 8 day, dose 3 mg/kg, route po; conditions: in vivo
[14] = Drug concentration in OF1 mouse brain at 1 mg/kg, iv measured at 5 mins post dose by LC-MS/MS analysis; type: ADME, organism-based; conditions: in vivo
[15] = AUCinfinity in Beagle dog at 6 mg/kg, po measured upto 24 hrs using crystalline form of sample by LC-MS/MS analysis; type: ADME, organism-based, Canis lupus familiaris; parameters: dose 6 mg/kg, time < 24 hrs, route po; conditions: in vivo
Mus musculus = assay: In vivo Inhibition of AKT phosphorylation at Ser473 residue in athymic nude mouse xenografted with rat Rat1-myr-p110alpha cells at 20 mg/kg, po qd measured after 1 to 10 hrs; type: functional, organism-based; conditions: time 1-10 hrs
[16] = Inhibition of PI3K PTEN mutant in human MDA-MB-468 cells assessed as reduction in phosphorylation of AKT at Ser473 residue by Western blot analysis; type: cell-based
[17] = Tmax in Sprague-Dawley rat at 3 mg/kg, po measured upto 24 hrs by LC-MS/MS analysis; type: ADME, organism-based; conditions: in vivo
[18] = AUCinfinity in Beagle dog at 5.4 mg/kg, po measured upto 24 hrs using PVP-ASD form of sample by LC-MS/MS analysis; type: ADME, organism-based, Canis lupus familiaris; parameters: time < 24 hrs, dose 5.4 mg/kg, route po; conditions: in vivo
[19] = Oral bioavailability in OF1 mouse plasma at 10 mg/kg measured upto 24 hrs by LC-MS/MS analysis; type: ADME, organism-based
[20] = Inhibition of PI3K PTEN mutant in human BT-549 cells assessed as reduction in phosphorylation of AKT at Ser473 residue by Western blot analysis; type: cell-based
[21] = Half life in beagle dog at 0.3 mg/kg,po or 0.1 mg/kg,iv measured upto 24 hrs by LC-MS/MS analysis; type: ADME, organism-based, Canis lupus familiaris; conditions: in vivo
[22] = Drug concentration in OF1 mouse blood at 1 mg/kg, iv measured at 1 hr post dose by LC-MS/MS analysis; type: ADME, organism-based; conditions: whole blood, read-out: Ct
[23] = Effect on plasma insulin level in athymic nude mouse xenografted with rat Rat1 cells expressing myr-p110alpha at 3 mg/kg, po qd measured upto 14 hrs by glucometer analysis; type: toxicity, organism-based; conditions: in vivo
[24] = Apparent permeability across apical to basolateral side in human Caco-2 cells at 10 uM measured after 120 mins by LC-MS/MS analysis; type: ADME, cell-based
[25] = Dose normalized AUC(0 to Tlast) in athymic nude mouse xenografted with rat Rat1 cells expressing myr-p110alpha at 20 mg/kg, po measured after 8 days by LC-MS/MS analysis; type: ADME, organism-based; conditions: in vivo, 192 h, time 8 day
cells = conditions: Homo sapiens, U-87 MG, 16 h
[26] = Dose normalized AUC(0 to Tlast) in athymic nude mouse xenografted with rat Rat1 cells expressing myr-p110alpha at 3 mg/kg, po measured after 8 days by LC-MS/MS analysis; type: ADME, organism-based; conditions: in vivo, 192 h, time 8 day
[27] = Cmax in athymic nude mouse xenografted with rat Rat1 cells expressing myr-p110alpha at 20 mg/kg, po measured after 8 days by LC-MS/MS analysis; type: ADME, organism-based; parameters: time 8 day, dose 20 mg/kg, route po; conditions: in vivo
Rat1 [28] = assay: Antitumor activity at rat Rat1 cells expressing myr-p110alpha xenografted in athymic nude mouse assessed as tumor growth inhibition at 40 mg/kg, po bid measured after 9 days; type: functional; conditions: Rat1, 216 h, time 9 day
[29] = Inhibition of wild type PI3K in human Hs-578T cells assessed as reduction in phosphorylation of AKT at Ser473 residue by Western blot analysis; type: cell-based
[30] = 1-octanol, logP of the compound at pH 7.4; type: physicochemical
[31] = Aqueous solubility of compound in buffer at pH 4 by HPLC analysis; type: physicochemical
[32] = Solubility of compound in FaSSIF at pH 6.5 measured upto 120 mins by HPLC analysis; type: physicochemical
[33] = Antitumor activity at patient derived human HBRX2524 xenografted in athymic nude mouse assessed as T/C ratio at 40 mg/kg, po qd measured upto 16 days; type: functional; conditions: time <= 16 day
[34] = Oral bioavailability in Sprague-Dawley rat at 20 mg/kg using crystalline form of sample; type: ADME, organism-based; conditions: in vivo
[35] = Solubility of compound in simulated gastric fluid at pH 2 measured upto 30 mins by HPLC analysis; type: physicochemical
[36] = Tmax in Beagle dog at 6 mg/kg, po measured upto 24 hrs using crystalline form of sample by LC-MS/MS analysis; type: ADME, organism-based, Canis lupus familiaris; conditions: in vivo
[37] = Toxicity in athymic nude mouse xenografted with rat Rat1 cells expressing myr-p110delta assessed as drug tolerance at 20 mg/kg, po bid measured for 7 to 15 days; type: organism-based; conditions: in vivo, time 7-15 day

Phosphatidylinositol 4,5-bisphosphate 3-kinase catalytic subunit gamma isoform, sequence (P48736 whole entry, canonical isoform): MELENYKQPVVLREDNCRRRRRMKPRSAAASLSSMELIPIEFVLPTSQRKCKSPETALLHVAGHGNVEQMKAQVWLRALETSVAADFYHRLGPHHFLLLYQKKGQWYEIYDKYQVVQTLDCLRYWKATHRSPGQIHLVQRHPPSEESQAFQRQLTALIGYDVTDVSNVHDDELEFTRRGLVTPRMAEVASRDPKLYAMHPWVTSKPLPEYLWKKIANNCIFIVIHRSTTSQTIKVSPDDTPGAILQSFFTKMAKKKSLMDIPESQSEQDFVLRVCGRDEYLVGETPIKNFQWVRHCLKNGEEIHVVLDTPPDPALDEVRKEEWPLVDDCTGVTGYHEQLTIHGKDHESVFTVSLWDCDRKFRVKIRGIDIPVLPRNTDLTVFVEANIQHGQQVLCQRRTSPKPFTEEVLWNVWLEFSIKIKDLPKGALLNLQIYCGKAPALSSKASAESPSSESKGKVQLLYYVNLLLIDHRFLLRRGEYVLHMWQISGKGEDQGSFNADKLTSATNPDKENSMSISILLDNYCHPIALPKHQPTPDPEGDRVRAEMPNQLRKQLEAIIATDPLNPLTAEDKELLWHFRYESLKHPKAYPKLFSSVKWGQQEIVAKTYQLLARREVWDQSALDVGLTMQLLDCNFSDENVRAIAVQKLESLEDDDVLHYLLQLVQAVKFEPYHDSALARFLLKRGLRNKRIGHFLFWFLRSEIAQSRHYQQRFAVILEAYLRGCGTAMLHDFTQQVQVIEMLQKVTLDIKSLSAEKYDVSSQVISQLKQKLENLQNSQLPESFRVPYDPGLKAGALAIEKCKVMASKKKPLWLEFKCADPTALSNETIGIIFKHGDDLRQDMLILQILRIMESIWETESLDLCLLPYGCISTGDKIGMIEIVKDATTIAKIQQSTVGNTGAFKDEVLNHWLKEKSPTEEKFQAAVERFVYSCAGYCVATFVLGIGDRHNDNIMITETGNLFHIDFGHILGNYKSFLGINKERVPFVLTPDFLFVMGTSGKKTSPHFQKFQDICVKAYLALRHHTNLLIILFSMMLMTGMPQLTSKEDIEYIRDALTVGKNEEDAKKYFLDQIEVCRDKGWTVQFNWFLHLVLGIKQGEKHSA

C[C@H]1OC(=O)N(c2nc(-c3cnc(N)nc3C(F)(F)F)cc(N3CCOCC3)n2)[C@H]1CO
fraction unbound at 4 h [1]: 0.29 | inhibition in vivo at 20 mg/kg [2]: 76% | fold change (FC) [3]: 2 | concentration at 5 min [4]: 3040 nM | Tmax [5]: 1.3 h | IC50 [6]: 251 nM | Activity [7]: Non-Toxic | T/C (Rat1 [8]): 0.14 | T/C (Rat1 [9]): -0.86 | concentration at 192 h [10]: 110 nM | IC50 [11]: 179 nM | IC50 [12]: 230 nM | Cmax [13]: 1480 nM | Ct [14]: 67 pmol/g | AUC(0-inf) [15]: 44.6 µM·h | inhibition (Mus musculus): Active | IC50 [16]: 263 nM | Tmax [17]: 0.5 h | AUC(0-inf) [18]: 152 µM·h | bioavailability [19]: 49% | IC50 [20]: 99 nM | half-life [21]: 11 h | concentration at 1 h [22]: 630 nM | Activity [23]: Non-Toxic | Papp A→B at 2 h, 10 µM [24]: 8.9 ×10⁻⁶ cm/s | AUC/dose [25]: 1.28 µM·h | IC50 (cells): 100 nM | AUC/dose [26]: 1.82 µM·h | Cmax [27]: 2910 nM | inhibition in vivo at 40 mg/kg (Rat1 [28]): > 80% | IC50 [29]: 27 nM | logD [30]: 2 | solubility [31]: 31 µM (≈ 14.1 µg/mL) | solubility at 2 h [32]: 31 µM (≈ 14.1 µg/mL) | T/C [33]: -0.2 | bioavailability [34]: 20% | solubility at 0.5 h [35]: 64 µM (≈ 29.1 µg/mL) | Tmax [36]: 4 h | Activity [37]: Toxic

Reference: ChEMBL document CHEMBL5137017, “Identification of NVP-CLR457 as an Orally Bioavailable Non-CNS-Penetrant pan-Class IA Phosphoinositol-3-Kinase Inhibitor” (J Med Chem, 2022)
